For 40 compounds, IC50 and IC90 results are on record in ChEMBL document CHEMBL4483862, “Open-source discovery of chemical leads for next-generation chemoprotective antimalarials” (2018).

Structures are written as SMILES.

In the experiment the test system is Plasmodium berghei. The experiment is described as follows: Luciferase/luciferin-expressing antifolate-resistant parasites were used to infect a culture of HepG2 cells that were pre-incubated with compounds. Infected hepatocytes emit light due to the luciferase reaction. Assay results are presented as the percent inhibition of light emission compared to control. […]. The experiment is classed as functional. Conditions: sporozoite; for IC90: read-out: LUCIFERASE INFECTION ASSAY - IC90.

Where [1] appears, read: read-out: LUCIFERASE INFECTION ASSAY - IC50.

The term IC50 denotes the point on the concentration scale where inhibition reaches its midpoint. What is called IC90 is the concentration at which the effect reaches the 90% level. With `CSc1nnnn1-c1cccc(NC(=O)c2cc(-c3cccs3)nc3c2cnn3C(C)C)c1`, the IC90 is over 10 µM. The 50% inhibitory concentration (IC50) (PBLUC_HILL_SLOPE 6.42, PBLUC_R_SQUARED 0.137, read-out: LUCIFERASE INFECTION ASSAY - IC50) is over 10 µM.

On to `Cc1c(-n2c(SCn3nnc4ccccc4c3=O)nc3ccccc3c2=O)c(=O)n(-c2ccccc2)n1C`, for which the IC90 was over 10 µM. Further, the IC50 (PBLUC_HILL_SLOPE 10.1, PBLUC_R_SQUARED 0.287, read-out: LUCIFERASE INFECTION ASSAY - IC50) amounted to 9.23 µM.

For the compound `CCCCCCCCCCCc1nnc(SCc2ccc(C)cc2)n1-c1ccccc1C(F)(F)F`, the IC90 is over 6.55 µM. Under setting [1], the 50% inhibitory concentration (IC50) is over 6.55 µM.

With `CCNC(=O)C1CCCN(C(=O)c2c(-c3ccccc3)noc2C)CC1` (stereo not given), the IC90 is over 9.28 µM. The IC50 under setting [1] is over 9.28 µM.

Turning to `O=C(OCc1csc(-c2ccccc2)n1)c1cc([N+](=O)[O-])ccc1N1CCC(Cc2ccccc2)CC1`, the IC90 was over 10 µM. Moreover, the 50% inhibitory concentration (IC50) (HEPG2TOX_HILL_SLOPE 3.49, HEPG2TOX_R_SQUARED 0.926, PBLUC_HILL_SLOPE 12.2, PBLUC_R_SQUARED 0.465, read-out: LUCIFERASE INFECTION ASSAY - IC50) was 8.99 µM.

As for `CC(C)(C)C1=CSC(=C2Sc3ccccc3C2=O)N1`, the IC90 was over 11.4 µM. In addition, the IC50 (FFLUC_HILL_SLOPE 1.22, FFLUC_R_SQUARED 0.112, read-out: LUCIFERASE INFECTION ASSAY - IC50) is over 11.4 µM.

With `COc1cccc(-c2noc(COC(=O)c3ccc(C)s3)n2)c1`, the IC90 was over 10 µM. The half-maximal inhibitory concentration (IC50) under setting [1] was over 10 µM.

In the case of `COc1ccc(C(c2cc(Cl)c3cccnc3c2O)N2CCN(C)CC2)cc1` (stereo not given), the concentration for an effect of 90% (IC90) worked out at 3.38 µM. Besides, for the setting “FFLUC_HILL_SLOPE 2.4, FFLUC_R_SQUARED 0.862, HEPG2TOX_HILL_SLOPE 1.1, HEPG2TOX_R_SQUARED 0.743, PBLUC_HILL_SLOPE 15.9, PBLUC_R_SQUARED 0.801, read-out: LUCIFERASE INFECTION ASSAY - IC50”, the IC50 was 2.95 µM.

Consider `CN(C(=O)CN1C(=O)NC(c2ccccc2)(c2ccccc2)C1=O)C1CCCc2ccccc21` (stereo not given), for which the 90% effect concentration (IC90) is over 10 µM. Besides, the half-inhibitory concentration (IC50) (PBLUC_HILL_SLOPE 2.94, PBLUC_R_SQUARED 0.848, read-out: LUCIFERASE INFECTION ASSAY - IC50) was 5.62 µM.

On to `Cc1[nH]nc2ccnc(-c3cccc(OC(F)(F)F)c3)c12`, for which the IC90 is over 10 µM. In addition, under setting [1], the IC50 is over 10 µM.

For the compound `O=C(C1CCC1)N1CCN(Cc2ccc(-c3ccc(Cl)cc3)s2)CC1`, the IC90 was over 10 µM. Also, the IC50 (HEPG2TOX_HILL_SLOPE 1.83, HEPG2TOX_R_SQUARED 0.819, PBLUC_HILL_SLOPE 1.76, PBLUC_R_SQUARED 0.701, read-out: LUCIFERASE INFECTION ASSAY - IC50) amounted to 4.2 µM.

On to `COc1cc(/C=N/NC(=S)Nc2ccccc2OC)ccc1O`, for which the 90% effect concentration (IC90) is over 9.96 µM. Further, the IC50 (FFLUC_HILL_SLOPE 0.707, FFLUC_R_SQUARED 0.581, PBLUC_HILL_SLOPE 0.242, PBLUC_R_SQUARED 0.281, read-out: LUCIFERASE INFECTION ASSAY - IC50) is over 9.96 µM.

Regarding `CC(C)n1ncc2cc(NC(=O)c3cccc(S(=O)(=O)NCc4ccccc4)c3)cnc21`, the 90% effect concentration (IC90) is over 10 µM. The IC50 (PBLUC_HILL_SLOPE 1.68, PBLUC_R_SQUARED 0.408, read-out: LUCIFERASE INFECTION ASSAY - IC50) was 6.12 µM.

As for `CCCCCCCc1ccc(NC(=O)Nc2ccc(F)cc2)cc1`, the IC90 is over 10 µM. In addition, under “FFLUC_HILL_SLOPE 255, FFLUC_R_SQUARED 0.421, PBLUC_HILL_SLOPE 1.52, PBLUC_R_SQUARED 0.706, read-out: LUCIFERASE INFECTION ASSAY - IC50”, the IC50 was 2.49 µM.

Take `Cc1cc(C)c(C)c(S(=O)(=O)N2CCC(C(=O)Nc3nc(-c4ccc[nH]4)cs3)CC2)c1C`: the IC90 is over 10 µM. Besides, the IC50 (FFLUC_HILL_SLOPE 22.1, FFLUC_R_SQUARED 0.531, read-out: LUCIFERASE INFECTION ASSAY - IC50) was over 10 µM.

On to `Cn1c(Nc2ccccc2)nc2cnc(-c3ccc4c(c3)OCO4)cc21`, for which the concentration for an effect of 90% (IC90) was over 10 µM. Besides, under setting [1], the IC50 is over 10 µM.

Consider `Cc1nn(CC(=O)Nc2cccc(Cl)c2)c(C)c1Oc1ccccc1`, for which the concentration for an effect of 90% (IC90) was over 9.27 µM. The IC50 under setting [1] was 5.38 µM.

Take `NC(=O)c1cccc(-c2cn3c(-c4ccc(F)c(Cl)c4)cnc3cn2)c1`: the 90% effect concentration (IC90) is over 9 µM. Further, the 50% inhibitory concentration (IC50) (PBLUC_HILL_SLOPE 2.55, PBLUC_R_SQUARED 0.396, read-out: LUCIFERASE INFECTION ASSAY - IC50) was found to be 5.28 µM.

As to `O=C(c1c[nH]nc1-c1ccccc1)N1CCN(S(=O)(=O)c2ccccc2)CC1`, the IC90 was over 10 µM. Further, under setting [1], the IC50 was over 10 µM.

As to `COc1ccc(-c2cnc3cnc(-c4cnn(C)c4)cn23)cc1`, the 90% effect concentration (IC90) was over 10.8 µM. The 50% inhibitory concentration (IC50) (HEPG2TOX_HILL_SLOPE 0.995, HEPG2TOX_R_SQUARED 0.66, PBLUC_HILL_SLOPE 1.64, PBLUC_R_SQUARED 0.772, read-out: LUCIFERASE INFECTION ASSAY - IC50) is 3.01 µM.

As to `COc1ccc(OS(=O)(=O)c2sc(Br)cc2Br)cc1`, the IC90 turned out to be 3.26 µM. Under “HEPG2TOX_HILL_SLOPE 3.4, HEPG2TOX_R_SQUARED 0.9, PBLUC_HILL_SLOPE 10.6, PBLUC_R_SQUARED 0.653, read-out: LUCIFERASE INFECTION ASSAY - IC50”, the IC50 was 2.64 µM.

In the case of `CC(C)C(Nc1ccc(C(F)(F)F)cc1Cl)C(=O)Nc1ccc(-n2cncn2)nc1` (stereo not given), the IC90 is over 10 µM. Further, the IC50 (HEPG2TOX_HILL_SLOPE 1.66, HEPG2TOX_R_SQUARED 0.94, PBLUC_HILL_SLOPE 0.872, PBLUC_R_SQUARED 0.779, read-out: LUCIFERASE INFECTION ASSAY - IC50) is 2.14 µM.

As to `CCNC(=O)Cc1ccc(NC(=O)c2csc(Br)c2)cc1`, the 90% effect concentration (IC90) was over 10 µM. For the same compound, the IC50 (FFLUC_HILL_SLOPE 10.6, FFLUC_R_SQUARED 0.0524, read-out: LUCIFERASE INFECTION ASSAY - IC50) was over 10 µM.

With `COc1ccc(C(=O)Nc2cccc(/C=C3\S/C(=N\C4CCCC4)NC3=O)c2)cc1`, the IC90 is over 10 µM. Also, the IC50 (HEPG2TOX_HILL_SLOPE 1.03, HEPG2TOX_R_SQUARED 0.894, PBLUC_HILL_SLOPE 3.32, PBLUC_R_SQUARED 0.257, read-out: LUCIFERASE INFECTION ASSAY - IC50) is 5.96 µM.

`CN1C/C(=C\c2ccc(Cl)cc2)C(=O)/C(=C/c2ccc(Cl)cc2)C1`: the IC90 was over 9.21 µM. Under setting [1], the IC50 worked out at 7 µM.

Take `O=C1Nc2ccc(F)cc2/C1=N/NC(=S)NC1CC2C=CC1C2` (stereo not given): the concentration for an effect of 90% (IC90) came out at 1.38 µM. Also, the concentration for half-maximal inhibition (IC50) (HEPG2TOX_HILL_SLOPE 0.956, HEPG2TOX_R_SQUARED 0.854, PBLUC_HILL_SLOPE 4.64, PBLUC_R_SQUARED 0.779, read-out: LUCIFERASE INFECTION ASSAY - IC50) is 0.86 µM.

For the compound `Cn1c(CC(=O)NNC(=O)/C=C/c2cccc(C(F)(F)F)c2)nc2ccccc21`, the 90% effect concentration (IC90) was 3.99 µM. Further, the half-maximal inhibitory concentration (IC50) under setting [1] is 3.4 µM.

In the case of `CCN(Cc1ccccc1)c1nc2ccccc2nc1NS(=O)(=O)c1cc([N+](=O)[O-])ccc1C`, the IC90 was over 10 µM. The IC50 (FFLUC_HILL_SLOPE 11.4, FFLUC_R_SQUARED 0.293, HEPG2TOX_HILL_SLOPE 1.92, HEPG2TOX_R_SQUARED 0.959, PBLUC_HILL_SLOPE 2.98, PBLUC_R_SQUARED 0.638, read-out: LUCIFERASE INFECTION ASSAY - IC50) is 7.87 µM.

In the case of `Cc1ccccc1N1CCCn2c1nc1c2c(=O)[nH]c(=O)n1C`, the concentration for an effect of 90% (IC90) was over 10.6 µM. Besides, the half-maximal inhibitory concentration (IC50) under setting [1] was over 10.6 µM.

`O=C(CCc1ccc(-c2ccccc2)o1)Nc1nc(-c2ccccn2)cs1`: the IC90 was over 10 µM. For the same compound, the half-maximal inhibitory concentration (IC50) (FFLUC_HILL_SLOPE 12.1, FFLUC_R_SQUARED 0.705, read-out: LUCIFERASE INFECTION ASSAY - IC50) was over 10 µM.

Turning to `COc1ccc(-c2cc3ncnc(NCc4ccc(S(=O)(=O)N5CCCC5)s4)c3s2)cc1`, the IC90 was 4.46 µM. The IC50 under setting [1] stood at 3.52 µM.

On to `COc1ccc(N2C(=N)C(c3nc4ccccc4s3)C(=O)C2c2ccccc2)cc1` (stereo not given), for which the IC90 came out at 4.06 µM. For the same compound, the IC50 (PBLUC_HILL_SLOPE 428, PBLUC_R_SQUARED 0.387, read-out: LUCIFERASE INFECTION ASSAY - IC50) turned out to be 4.04 µM.

As for `c1nc(NCC23CC4CC(CC(C4)C2)C3)c2sccc2n1`, the IC90 is over 10 µM. Further, the 50% inhibitory concentration (IC50) under setting [1] is over 10 µM.

In the case of `COc1cncc(-c2cnn3ccc(Nc4ccc(Oc5ccccc5)cc4)nc23)c1`, the IC90 is over 8.06 µM. Where the note is “HEPG2TOX_HILL_SLOPE 17.9, HEPG2TOX_R_SQUARED 0.509, PBLUC_HILL_SLOPE 0.505, PBLUC_R_SQUARED 0.666, read-out: LUCIFERASE INFECTION ASSAY - IC50”, the IC50 was over 8.06 µM.

In the case of `CC(C)(c1ccccc1)c1ccc(OCC(O)CN2CCC(C(N)=O)CC2)cc1` (stereo not given), the IC90 is over 10 µM. Also, under setting [1], the IC50 is over 10 µM.

Regarding `Cc1cc(C(=O)N2CCc3sccc3C2)c2c(C)noc2n1`, the IC90 is over 10 µM. In addition, the IC50 (PBLUC_HILL_SLOPE 3.72, PBLUC_R_SQUARED 0.0188, read-out: LUCIFERASE INFECTION ASSAY - IC50) was over 10 µM.

`Cc1noc(C)c1C(=O)Nc1nc(-c2c[nH]c3ccccc23)cs1`: the IC90 is over 10 µM. Further, the IC50 under setting [1] is over 10 µM.

For the compound `Cc1nnc(-c2cccc(NC(=O)c3ccc4c(c3)CCO4)c2)[nH]1`, the concentration for an effect of 90% (IC90) was over 10 µM. The half-inhibitory concentration (IC50) under setting [1] was over 10 µM.

Turning to `CN(C)Cc1ccc(CNc2ncnc3scc(-c4ccccc4)c23)cc1`, the IC90 was found to be 2.66 µM. In addition, the IC50 under setting [1] came to 0.704 µM.

For `O=C(c1ccc(OCc2cccnc2)cc1)N1CCc2ccccc21`, the 90% effect concentration (IC90) is over 10 µM. In addition, the IC50 (HEPG2TOX_HILL_SLOPE 3.32, HEPG2TOX_R_SQUARED 0.856, read-out: LUCIFERASE INFECTION ASSAY - IC50) was over 10 µM.
